The text below walks through data of ChEMBL document CHEMBL1201862, “PubChem BioAssay data set” (2004).

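All cell lines were grown in 96-well plates and treated with compound for 48 hours. GI50 = concentration required for 50% inhibition of growth.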 Activity calls are given as the source filed them. Rule as the data show it: active = GI50 up to about 1.1 µM and inactive = higher.

Test systems include NCI-H522; T47D; ACHN; SF-268; M14; MCF7; DU-145; EKVX; TK-10; Malme-3M; SF-295; NCI/ADR-RES; SNB-75; SN12C; K562; IGROV-1; OVCAR-3; HL-60; HT-29; HOP-92.
Holding throughout (test): DTP human tumour cell line panel, 48 h

The GI50 is the concentration giving 50% growth inhibition. Consider `CCOC(=O)c1cc(-c2ccn(C(C)=O)c2)c(-c2cc(C)co2)[nH]1`, for which the GI50 in the test with NCI-H522, in the test on T47D, in the test with ACHN, with SF-268, in the test on M14 and in the test with MCF7 was > 100 µM (inactive) throughout. Further, the GI50 in the test with DU-145, in the test on EKVX, with TK-10, in the test with Malme-3M, in the test with SF-295 and in the test on NCI/ADR-RES was > 100 µM (inactive) in each case. In addition, the GI50 in the test on SNB-75, with SN12C, in the test with K562, with IGROV-1, in the test on OVCAR-3 and in the test with HL-60 was > 100 µM (inactive) each time.

For the compound `CC#CC(O)(C(=O)OC1CC(C)N(C)C(C)(C)C1)C1CCCC1` (stereo not drawn), the GI50 in the test with NCI-H522, in the test with T47D, with ACHN, in the test with SF-268, in the test with M14 and with MCF7 was > 100 µM (inactive) each time. In addition, the GI50 with DU-145, with EKVX, with TK-10, in the test on Malme-3M, in the test on HT-29 and in the test with SF-295 was > 100 µM (inactive) in each case. The GI50 with NCI/ADR-RES is 29 µM (inactive); with SNB-75, > 100 µM (inactive); in the test with SN12C, > 100 µM (inactive); in the test on K562 it was > 100 µM (inactive); in the test on IGROV-1, > 100 µM (inactive); with OVCAR-3, > 100 µM (inactive). Besides, the GI50 with HL-60 was > 100 µM (inactive).

Regarding `CSC1=NC(C(N)=O)C(N)N1C` (stereo not drawn), the GI50 in the test on NCI-H522, in the test on T47D, in the test on ACHN, in the test with SF-268, with M14 and in the test with DU-145 was > 100 µM (inactive) in each case. The GI50 with EKVX, in the test on TK-10, in the test with Malme-3M, in the test on HOP-92, with HT-29 and with SF-295 was > 100 µM (inactive) in each case. In addition, the GI50 in the test on NCI/ADR-RES, with SN12C, in the test on K562, in the test on IGROV-1, in the test on OVCAR-3 and in the test with HL-60 was > 100 µM (inactive) each time.

`COc1cccc(/C=N/[N+](C)(C)C)c1O`: the GI50 in the test with NCI-H522, with T47D, in the test on ACHN, with SF-268, in the test on M14 and with MCF7 was > 10 µM (inactive) in each case. Further, the GI50 in the test with DU-145, with EKVX, in the test on TK-10, with Malme-3M, with HT-29 and in the test on SF-295 was > 10 µM (inactive) each time. The GI50 in the test on NCI/ADR-RES, with SNB-75, with SN12C, with K562, in the test on IGROV-1 and with OVCAR-3 was > 10 µM (inactive) each time. The GI50 with HL-60 is > 10 µM (inactive).

As to `Cc1cn(CCOCCOC(=O)NC(CCCNC(=N)N)C(=O)O)c(=O)[nH]c1=O` (stereo not drawn), the GI50 in the test with T47D, with ACHN, with SF-268, in the test with M14, in the test with MCF7 and in the test on DU-145 was > 100 µM (inactive) each time. The GI50 in the test on EKVX is > 100 µM (inactive); in the test with TK-10, > 100 µM (inactive); with HOP-92, > 100 µM (inactive); with HT-29 it was > 100 µM (inactive); in the test on SF-295, > 100 µM (inactive); in the test with NCI/ADR-RES, 26.8 µM (inactive). In addition, the GI50 in the test with SNB-75, in the test on SN12C, in the test with K562, in the test with IGROV-1, in the test with OVCAR-3 and in the test with HL-60 was > 100 µM (inactive) throughout.

Consider `c1cc(-c2cscc2-c2ccsc2)cs1`, for which the GI50 was 69.7 µM (inactive) in the test on T47D; > 100 µM (inactive) in the test with ACHN; 58.2 µM (inactive) in the test with SF-268; 31.3 µM (inactive) in the test on M14; 30.5 µM (inactive) with MCF7; > 100 µM (inactive) in the test on DU-145. Moreover, the GI50 in the test on EKVX is 41.3 µM (inactive); in the test on TK-10, 88.5 µM (inactive); with HOP-92 it was > 100 µM (inactive); in the test on HT-29 it was > 100 µM (inactive); in the test on SF-295 it was 83.4 µM (inactive); in the test on NCI/ADR-RES, 37.7 µM (inactive). Besides, the GI50 with SNB-75 is 12.3 µM (inactive); in the test with SN12C, > 100 µM (inactive); with K562, 71.4 µM (inactive); in the test with IGROV-1 it was 34.5 µM (inactive); in the test with OVCAR-3, 14.4 µM (inactive); with HL-60, 30.4 µM (inactive).

As for `CCOC(=O)CNc1c(OCc2ccccc2)c(=O)c1=O`, the GI50 with NCI-H522, in the test with T47D, in the test on ACHN, with SF-268, in the test on M14 and in the test on MCF7 was > 100 µM (inactive) in each case. Further, the GI50 with DU-145, in the test on EKVX, with TK-10, with Malme-3M, in the test with HT-29 and in the test with SF-295 was > 100 µM (inactive) in each case. Further, the GI50 with NCI/ADR-RES, in the test on SNB-75, in the test on SN12C, in the test with K562, in the test with IGROV-1 and with OVCAR-3 was > 100 µM (inactive) in each case.

For the compound `O=c1c(NO)c([N+](=O)[O-])cnn1-c1ccccc1`, the GI50 in the test on NCI-H522 is 1.97 µM (inactive); in the test with T47D it was 1.83 µM (inactive); in the test on ACHN, 8.53 µM (inactive); in the test on SF-268 it was 12.5 µM (inactive); in the test on M14, 1.99 µM (inactive); with MCF7 it was 2.55 µM (inactive). The GI50 is 13.8 µM (inactive) in the test on DU-145; 11.6 µM (inactive) with EKVX; 18.4 µM (inactive) in the test with TK-10; 4.6 µM (inactive) in the test on Malme-3M; 7.64 µM (inactive) in the test with HOP-92; 2.6 µM (inactive) in the test on HT-29. Moreover, the GI50 in the test with SF-295 is 12.2 µM (inactive); in the test with SNB-75 it was 14.6 µM (inactive); in the test with SN12C, 3.08 µM (inactive); in the test with K562 it was 0.908 µM (active); with IGROV-1 it was 21.1 µM (inactive); with OVCAR-3, 2.98 µM (inactive). The 50% growth inhibitory concentration (GI50) in the test on HL-60 was 0.789 µM (active).

Take `COCN1C(=O)[C@@H]2CCCN2C(=O)c2cc([N+](=O)[O-])ccc21`: the GI50 in the test with NCI-H522 was 16 µM (inactive); in the test with T47D, 45.7 µM (inactive); in the test on ACHN it was 53.1 µM (inactive); in the test on SF-268 it was 35.9 µM (inactive); in the test with M14, > 100 µM (inactive); with MCF7, 46.3 µM (inactive). Also, the GI50 was 39.8 µM (inactive) with DU-145; > 100 µM (inactive) in the test on EKVX; > 100 µM (inactive) in the test on TK-10; 88.5 µM (inactive) in the test with Malme-3M; 71.9 µM (inactive) in the test with HT-29; 35.5 µM (inactive) with SF-295. In addition, the GI50 with NCI/ADR-RES is > 100 µM (inactive); in the test with SNB-75 it was 67.9 µM (inactive); with SN12C it was > 100 µM (inactive); in the test with IGROV-1, 35.5 µM (inactive).

As to `COc1cc(Br)cc2cc(C3=CSC4=NCCN34)c(=O)oc12`, the GI50 was 17.5 µM (inactive) in the test on T47D; 28.3 µM (inactive) in the test with ACHN; 22.2 µM (inactive) with M14; 18 µM (inactive) in the test with MCF7; 17.8 µM (inactive) in the test on DU-145; 17.7 µM (inactive) in the test on EKVX. Further, the GI50 with TK-10 was 18.8 µM (inactive); in the test on HOP-92 it was 17.1 µM (inactive); with HT-29 it was 19.1 µM (inactive); in the test with SF-295, 19.4 µM (inactive); in the test with NCI/ADR-RES, 65.9 µM (inactive); in the test with SNB-75, 21 µM (inactive). For the same compound, the GI50 in the test with SN12C is 17.5 µM (inactive); in the test with K562, 26.5 µM (inactive); with IGROV-1, 17.6 µM (inactive); in the test on OVCAR-3, 16.8 µM (inactive); in the test on HL-60 it was 29.4 µM (inactive).

Regarding `CCCC(=O)n1[nH]c(=O)n(C(C)(C)C)c1=O`, the GI50 with T47D, in the test on ACHN, with SF-268, in the test on M14, with MCF7 and in the test with DU-145 was > 100 µM (inactive) throughout. Further, the GI50 in the test with EKVX was > 100 µM (inactive); in the test on TK-10, > 100 µM (inactive); in the test on Malme-3M, 44.1 µM (inactive); with HT-29, > 100 µM (inactive); in the test on SF-295 it was > 100 µM (inactive); in the test with NCI/ADR-RES, > 100 µM (inactive). Besides, the GI50 in the test with SNB-75 is 39.5 µM (inactive); in the test on SN12C, > 100 µM (inactive); with K562, > 100 µM (inactive); in the test with IGROV-1, > 100 µM (inactive); with OVCAR-3 it was > 100 µM (inactive); in the test with HL-60, > 100 µM (inactive).
